Molecules are shown by their SMILES.

The target in test [1] is T1, TIFA (Homo sapiens, UniProt Q96CG3).
T1 construct: expressed in transfected cells; endogenous TIFA knocked down with a 3' UTR shRNA
T1 sequence (Q96CG3 1-184): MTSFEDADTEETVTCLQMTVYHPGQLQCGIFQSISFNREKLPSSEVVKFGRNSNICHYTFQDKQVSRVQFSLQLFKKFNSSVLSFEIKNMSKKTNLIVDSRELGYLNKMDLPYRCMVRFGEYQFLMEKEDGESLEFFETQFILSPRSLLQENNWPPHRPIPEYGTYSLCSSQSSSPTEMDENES
Kind of test: Confocal microscopy of FLAG-TIFA with TRAF6 or Lamp2. It is filed as cell-based. As to the method:
For visualization of FLAG-TIFA and TRAF6, cells were stained overnight at 4° C. with Alexa Fluor-488 conjugated rabbit anti-FLAG (Cell Signaling) and mouse anti-TRAF6 (sc-8409; Santa Cruz), followed by 1 hour with Alexa Fluor-594 conjugated anti mouse (Life Technologies). For visualization of FLAG-TIFA and Lamp2, cells were stained overnight at 4° C. with mouse anti-FLAG (M2; Sigma) and rabbit anti-Lamp2 (ab37024; Abcam), followed by 1 hour with Alexa Fluor-488 conjugated anti-mouse (Life Technologies) and Alexa Fluor-594 conjugated anti-rabbit (Life Technologies). Slides were visualized using an LSM510 (Carl Zeiss) confocal microscope. For analysis, images were processed using ImageJ software

A further test has as its system TIFA expression. Kind of test: qRT-PCR of TIFA mRNA levels in Jurkat T cells. It is filed as cell-based, human. The following applies: dependent on RelA, FIG. 13. From the text:
FIG. 13. Shown is qRT-PCR analysis of TIFA mRNA levels in Jurkat T cells treated with HBP, flagellin, or TNFα (after knockdown of the NF-κB subunit ReIA, or treated with a scrambled shRNA (shCtrl).
(§1) RNA was isolated using an RNeasy kit (Qiagen) per manufacturers' protocol. cDNA was synthesized using the iScript cDNA synthesis kit (Bio-Rad) and treated with TURBO DNase (Life Technologies). cDNA was amplified using SsoAdvanced SYBR Green (Bio-Rad) using a C1000 thermal cycler (Bio-Rad). Target genes were amplified using the following primers: […]
(§2) Relative expression was calculated using the 2^−ΔΔCT method following normalization of target gene abundance to GAPDH. Quantitative measurements of cytokines were performed using ELISA kits form R&D Systems (KC, IL-23, IFN-β) or BD Biosciences (IL-1β, IL-8, IL-6, IL-12p70, TNF-α). Nuclear extracts were prepared from Jurkat T cells and NF-κB subunit binding was determined using the TransAM® Transcription Factor ELISA (Active Motif). Microarray

The target in test [2] is T1, TIFA. Kind of test: Native PAGE analysis of FLAG-TIFA oligomerization. The class given is cell-based. The following applies: clear native-PAGE or blue native PAGE; Jurkat cells; FIG. 20. An excerpt:
For BlueNative PAGE, cells were lysed in 1% NP-40, 0.1% Triton-X100, 0.1% SDS and soluble lysate separated by gradient PAGE (8-16%) using ExpressPlus System™ (GenScript) as described previously (Kofoed and Vance, 2013). For ClearNative PAGE, cells were lysed in 1% NP-40, 0.1% Trition-X100, 0.1% SDS and soluble lysate separated on 12.5% tris-glycine polyacrylamide gels.

Test [3] has as its target T1, TIFA. Kind of test: Phosphopeptide analysis of FLAG-TIFA by LC-MS/MS. The class given is cell-based. The following applies: HBP or mock-treated cells stably expressing FLAG-TIFA; FIG. 19a. As for the experimental part: FLAG-TIFA was immunoprecipitated from Jurkat cells using FLAG M2 agarose beads (Sigma) as described previously (Chen and Gingras, 2007). Briefly, cells were lysed in 50 mM Hepes-KOH pH 8.0, 100 mM KCl, 2 mM EDTA, 0.1% NP40, 10% glycerol. Soluble cell lysates were pre-cleared for 2 hr with mouse IgG agarose (Sigma) and immunoprecipitated overnight at 4° C. Proteins eluted using 0.5 M NH4OH pH 11 (for mass-spectrometry), or 3× FLAG-peptide (Sigma) (immunoblot analysis). TRAF6 was immunoprecipitated from Jurkat cell lysates using rabbit anti-TRAF6 (sc-72201; Santa cruz) conjugated to protein A/G PLUS-agarose (Santa cruz) and eluted in sample buffer. Whole cell lysates or immunoprecipitation eluates were immunoblotted with the following antibodies: M2 anti-FLAG (Sigma), rabbit anti-FLAG (Sigma), mouse anti-TRAF6 (sc-8409; Santa Cruz), rabbit anti-TRAF2 (sc-876), mouse anti-ubiquitin (sc-8017; Santa cruz), mouse anti-beta actin (Sigma). For phosphopeptide analysis, FLAG-TIFA was excised from the gel, subject to in-gel trypic digestion, followed by treatment with cyanogen bromide (Sigma) in 70% TFA and analyzed by LC/MS/MS. Data were analyzed by Scaffold PTM (Proteome).

Test [4] has as its system HIV gene expression from latently-infected cells. Kind of test: Latent HIV-1 reporter Jurkat T cell line (RG5), DsRed expression. It is filed as cell-based, human. The following applies: FIG. 11B. An excerpt: The full-length HIV-1 molecular clone pLAl containing the following modifications was used as the reporter backbone: Avrll deletion of the 3′ end of Gag and the entire coding sequence of Pol, and a the Ndel/Stul deletion of the 3′ end of Env. The Dsred allele was cloned into the Nef reading frame using BamH1, and Xhol. Lentiviral particles were produced by co-transfection into 293T cells with pMDG.2 and psPAX2. Jurkat cells were transduced with the minimum dose required to see DsRed positive cells following treatment with 10 ng/ml TNFα. 48 hours post transfection, cells were treated HBP, and DsRed positive cells sorted by FACS. Cells were cultured for 14 days followed by DsRed negative cell sorting by FACS. 5 days later, cells were induced with HBP, and DsRed positive cells collected into 96 well plates (0.5 cells/well). Clones were individually tested for low basal DsRed expression, and high DsRed expression following treatment with both HBP and TNFα and termed RG5.
Live cells were re-suspended to 1×10^6 cells/ml in 2% FBS in PBS and analyzed using a FACSCalibur with CellQuest software (Becton Dickinson). Analysis was preformed using FlowJo software (TreeStar). Cell sorting was done using an Aria I cell sorter (Becton Dickinson).

The test system of test [5] is NF-κB dependent genes in Jurkat T cells. As to the kind of experiment: Microarray, qRT-PCR and NF-κB subunit ELISA in Jurkat T cells. It is filed as cell-based, human. The following applies: compared with flagellin or TNFα, FIG. 2b,c. As for the experimental part:
as §1, §2
Two clonal populations of Jurkat cells were stimulated for 2 hr with purified HBP-containing supernatants, or supernatants from M. catarrhalis. RNA was extracted using RNeasy (Qiagen), labeled using Illumina TotalPrep RNA Amplification kit (Ambion) and analyzed on a human HT-12 v4.0 Beadchip (Illumina). Data normalization and analysis were provided as a service by the Bioinformatics Department of the University Health Network (UHN) Micro array Centre, Toronto, ON. Data was analyzed using Genespring v11.0.1. […]
For orientation: In qPCR the cycle at which signal appears reflects the starting amount.

Take `O=P(O)(O)OC[C@@H](O)[C@H]1OC(OP(=O)(O)O)[C@@H](O)[C@@H](O)[C@@H]1O` (stereo partly drawn) [HBP, D-glycerol-D-manno-heptose-1,7-bisphosphate]: the “TIFA co-localization with TRAF6” value on TIFA [1] (293T cells, 3 hr, FIG. 16b) was “co-localized with TRAF6 in distinct foci”. Moreover, the “Formation of TIFA aggregates co-localized with Lamp2” value on TIFA [1] (293 cells, 4 hr, FIG. 21) is listed as “induced the formation of large TIFA aggregates”. Also, the “Upregulation of TIFA expression” value with TIFA expression is given as “over 5 fold”. In addition, the TIFA oligomerization result on TIFA [2] is given as “triggered TIFA oligomerization”. Moreover, the “TIFA Thr9 phosphorylation” value on TIFA [3] is given as “phosphorylated only after treatment with HBP”. Further, in test [4], the “HIV gene expression from latently-infected cells” value is recorded as “potently induce HIV gene expression”. Besides, the “Kinetics of NF-κB activation and pro-inflammatory transcriptional response” value in test [5] is “slower, and persisted longer”.

The values above are taken from patent US10238738B2, “Methods of modulating immune system responses” (priority 2014, dated 2019).
